From US11274111B2, “Arginase inhibitors and methods of use” (Merck Sharp & Dohme Corp., priority 2018, dated 2022)
pIC50: −log10 of the molar value. Counter-ions that a name gives are not always drawn.

Molecular target: T1, Arginase (Homo sapiens, UniProt P05089)
T1 construct: Arginase protein was recombinantly expressed in Escherichia coli
T1 sequence (P05089 1-322): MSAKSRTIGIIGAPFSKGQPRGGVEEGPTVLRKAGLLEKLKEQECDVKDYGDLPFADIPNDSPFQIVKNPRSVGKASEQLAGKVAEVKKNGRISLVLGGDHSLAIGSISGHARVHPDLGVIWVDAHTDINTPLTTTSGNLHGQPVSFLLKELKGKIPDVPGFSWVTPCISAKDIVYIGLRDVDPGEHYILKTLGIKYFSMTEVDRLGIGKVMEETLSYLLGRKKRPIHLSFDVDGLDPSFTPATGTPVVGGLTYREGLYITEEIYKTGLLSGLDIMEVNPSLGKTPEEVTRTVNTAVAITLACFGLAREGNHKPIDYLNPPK
Test: Arginase Thioornithine Generating Assay (TOGA)
Format: biochemical
Settings: for inhibition at 10 µM / Percent Inhibition at Top Dose: Top Dose 10000 nM; for inhibition at 10 µM: read-out: Percent Inhibition at Top Dose; for pIC50: recombinant arginase 1.88 nM, thioarginine substrate
Experimental: Arginase Thioornithine Generating Assay (TOGA)
Compounds were serially diluted in ten 3-fold steps in DMSO starting from 10 mM DMSO stocks. Compound dilutions or DMSO alone were then dispensed from the dilution plate into a Greiner black 384-well assay plate (catalog #781086) using an Echo 555 acoustic liquid handler (Labcyte).
Arginase protein was recombinantly expressed in Escherichia coli. Purified protein was then diluted in assay buffer (50 mM Tris pH 7.5, 50 mM NaCl, 1 mM manganese chloride, 0.05% bovine serum albumin to obtain a final Arginase concentration of 1.88 nM. Arginase solution (20 μL) or buffer alone (20 μL) were dispensed to wells of the assay plate using a BioRAPTR liquid dispenser (Beckman Coulter). Assay plates containing compound and arginase enzyme were incubated at room temperature for 30 minutes. Afterwards, 5 μL of 2.5 mM thioarginine (Cayman Chemicals) in assay buffer were added to each well of the assay plate using a BioRAPTR liquid dispenser. Plates were incubated at room temperature for 60 minutes and reactions were quenched by addition of 15 μL of 200 uM 7-Diethylamine-3-(4-maleimidophenyl)-4-methylcoumarin (Sigma Chemical) in 70% ethanol. Plates were briefly shaken to mix and the fluorescence was measured in an Spectramax plate reader (Molecular Devices) with a 410 nm excitation wavelength and an 490 nm emission wavelength.
Potencies were calculated by […] to the four parameter logistic IC50 equation.

Compound	inhibition at 10 µM [%]	pIC50	Percent Inhibition at Top Dose [%]
NC1(C(=O)O)c2cnccc2CC1CCCB(O)O (centres unmarked) [Example 30, 7-amino-6-(3-boronopropyl)-6,7-dihydro-5H-cyclopenta[c]pyridine-7-carboxylic acid]	87.3	–	–
CC1NC[C@@H]2[C@H]1CC(N)(C(=O)O)[C@H]2CCCB(O)O (stereo partly drawn) [Example 31a, (3aR,4S,6aR)-5-amino-4-(3-boronopropyl)-1-methyloctahydrocyclopenta[c]pyrrole-5-carboxylic acid]	89.9	–	–
C[C@@H]1NC[C@@H]2CC(N)(C(=O)O)[C@@H](CCCB(O)O)C21 (stereo partly drawn) [Example 31b, (3aR,6S,6aR)-5-amino-6-(3-boronopropyl)-1-methyloctahydrocyclopenta[c]pyrrole-5-carboxylic acid, HFBA Salt]	70	–	–
CN(C)C[C@]12C[C@H]1CC(CCCB(O)O)C2(N)C(=O)O (stereo partly drawn) [Example 33a, (1S,5R)-2-amino-3-(3-boronopropyl)-1-((dimethylamino)methyl)bicyclo[3.1.0]hexane-2-carboxylic acid]	62.7	–	–
NC1(C(=O)O)CC2CCCC2C1CCCB(O)O (centres unmarked) [Example 34a, 2-amino-1-(3-boronopropyl)octahydropentalene-2-carboxylic acid]	22.2	–	–
NC1(C(=O)O)CC2(CNC2)CC1CCCB(O)O (centres unmarked) [Example 35a, 6-amino-7-(3-boronopropyl)-2-azaspiro[3.4]octane-6-carboxylic acid]	99.7	6.63	–
N[C@]1(C(=O)O)[C@H](CCCB(O)O)C[C@H]2C[C@H]21 [Example 36b, (1R,2R,3R,5R)-2-amino-3-(3-boronopropyl)bicyclo[3.1.0]hexane-2-carboxylic acid]	47.4	–	–
NC1(C(=O)O)CC2(CCCN2)CC1CCCB(O)O (stereo not drawn) [Example 37a, rel-7-amino-8-(3-boronopropyl)-1-azaspiro[4.4]nonane-7-carboxylic acid]	98	–	–
NC1(C(=O)O)CN2CCNC[C@H]2C1CCCB(O)O (stereo partly drawn) [Example 38a, (8aR)-7-amino-8-(3-boronopropyl)octahydropyrrolo[1,2-a]pyrazine-7-carboxylic acid]	63	–	–
NC1(C(=O)O)c2cccnc2CC1CCCB(O)O (centres unmarked) [Example 39, 5-amino-6-(3-boronopropyl)-6,7-dihydro-5H-cyclopenta[b]pyridine-5-carboxylic acid]	94.7	–	–
NC1(C(=O)O)C(CCCB(O)O)CC2NCCCC21 (centres unmarked) [Example 40, 5-amino-6-(3-boronopropyl)octahydro-1H-cyclopenta[b]pyridine-5-carboxylic acid]	91.4	–	–
NC1(C(=O)O)CC2(CCNC2)OC1CCCB(O)O (centres unmarked) [Example 41, 3-amino-2-(3-boronopropyl)-1-oxa-7-azaspiro[4.4]nonane-3-carboxylic acid]	97.7	–	–
CC(C)[C@H](N)C(=O)N1C[C@@H]2C[C@@](N)(C(=O)O)[C@@H](CCCB(O)O)[C@@H]2C1 [Example 42, (3aR,4S,5S,6aR)-2-(L-valyl)-5-amino-4-(3-boronopropyl)octahydrocyclopenta[c]pyrrole-5-carboxylic acid]	98	7.28	–
N[C@@]1(C(=O)O)C[C@H]2C[C@@H](O)C[C@H]2[C@@H]1CCCB(O)O [Example 44a, (1S,2S,3aS,5R,6aR)-2-amino-1-(3-boronopropyl)-5-hydroxyoctahydropentalene-2-carboxylic acid]	97.1	6.59	–
N[C@@]1(C(=O)O)C[C@H]2C[C@H](O)C[C@H]2[C@@H]1CCCB(O)O [Example 44b, (1S,2S,3aS,5S,6aR)-2-amino-1-(3-boronopropyl)-5-hydroxyoctahydropentalene-2-carboxylic acid]	97.4	6.75	–
N[C@H]1C[C@@H]2C[C@@](N)(C(=O)O)[C@@H](CCCB(O)O)[C@@H]2C1 [Example 45, (1S,2S,3aR,5S,6aR)-2,5-diamino-1-(3-boronopropyl)octahydropentalene-2-carboxylic acid]	99.4	–	–
C[C@H](N)C(=O)N[C@H]1C[C@@H]2C[C@@](N)(C(=O)O)[C@@H](CCCB(O)O)[C@@H]2C1 [Example 46, (1S,2S,3aR,5S,6aR)-2-amino-5-((S)-2-aminopropanamido)-1-(3-boronopropyl)octahydropentalene-2-carboxylic acid]	96.8	6.28	–
CC(C)[C@H](N)C(=O)N[C@H]1C[C@@H]2C[C@@](N)(C(=O)O)[C@@H](CCCB(O)O)[C@@H]2C1 [Example 47, (1S,2S,3aR,5S,6aR)-2-amino-5-((S)-2-amino-3-methylbutanamido)-1-(3-boronopropyl)octahydropentalene-2-carboxylic acid]	94.2	6.28	–
N[C@@]1(C(=O)O)C[C@H]2C[C@@H](NCCO)C[C@H]2[C@@H]1CCCB(O)O [Example 48, (1S,2S,3aR,5R,6aR)-2-amino-1-(3-boronopropyl)-5-((2-hydroxyethyl)amino)octahydropentalene-2-carboxylic acid]	98.4	–	–
N[C@@]1(C(=O)O)C[C@H]2C[C@@H](NCC(F)(F)F)C[C@H]2[C@@H]1CCCB(O)O [Example 49, (1S,2S,3aR,5R,6aR)-2-amino-1-(3-boronopropyl)-5-((2,2,2-trifluoroethyl)amino)octahydropentalene-2-carboxylic acid]	85.9	–	–
CN(C)[C@@H]1C[C@@H]2C[C@@](N)(C(=O)O)[C@@H](CCCB(O)O)[C@@H]2C1 [Example 50, (1S,2S,3aR,5R,6aR)-2-amino-1-(3-boronopropyl)-5-(dimethylamino)octahydropentalene-2-carboxylic acid]	97.8	–	–
CN[C@@H]1C[C@@H]2C[C@@](N)(C(=O)O)[C@@H](CCCB(O)O)[C@@H]2C1 [Example 51a, (1S,2S,3aR,5R,6aR)-2-amino-1-(3-boronopropyl)-5-(methylamino)octahydropentalene-2-carboxylic acid]	99.6	7.48	–
N[C@@]1(C(=O)O)C[C@H]2[C@H](F)[C@@H](O)C[C@H]2[C@@H]1CCCB(O)O [Example 54a, (1S,2S,3aR,4S,5S,6aS)-2-amino-1-(3-boronopropyl)-4-fluoro-5-hydroxyoctahydropentalene-2-carboxylate]	101	–	–
(1S,2S,3aR,4S,5R,6aS)-2-amino-1-(3-boronopropyl)-4-fluoro-5-(methylamino)octahydropentalene-2-carboxylate [Example 55a]	–	7.63	103.1
(1S,2S,3aR,4S,5R,6aS)-2-amino-1-(3-boronopropyl)-4-fluoro-5-hydroxyoctahydropentalene-2-carboxylate [Example 54b]	–	7.37	100.1
(1S,2S,3aR,4S,5S,6aS)-2-amino-1-(3-boronopropyl)-4-fluoro-5-(methylamino)octahydropentalene-2-carboxylate [Example 55b]	–	7.84	101.7
(1S,2S,3aR,5R,6R,6aR)-2-amino-1-(3-boronopropyl)-6-fluoro-5-(methylamino)octahydropentalene-2-carboxylate [Example 53b]	–	8.16	100
(1S,2S,3aR,5S,6aR)-2-amino-1-(3-boronopropyl)-5-(methylamino)octahydropentalene-2-carboxylate [Example 51b]	–	7.69	98.67
(1S,2S,3aS,5R,6R,6aR)-2-amino-1-(3-boronopropyl)-6-fluoro-5-hydroxyoctahydropentalene-2-carboxylate [Example 52b]	–	7.43	99.46
(1S,2S,3aS,5S,6R,6aR)-2-amino-1-(3-boronopropyl)-6-fluoro-5-hydroxyoctahydropentalene-2-carboxylate [Example 52a]	–	6.66	96.25
